Literature values, collected in patent US6743947B1, “Electrochemically stable onium salts and electrolytes containing such for electrochemical capacitors” (The United States of America as represented by the …, priority 1999, dated 2004).
Where two headings read alike, the source gives them in different places.

Legend:
[1] = room temperature

For `CC[N+](CC)(CC)CC.F[B-](F)(F)F` [Et4NBF4, tetraethylammonium tetrafluoroborate], the conductivity ([1]; in AN, 1.4 M) is given as “about 50 mS/cm”, the conductivity ([1]; in PC, 0.65 M) is given as 8.8 mS/cm and the saturated salt concentration (in acetonitrile (AN), room temperatures) is given as “about 1.68 M”. The saturated concentration (in propylene carbonate (PC), room temperature) was 0.86 M.
